The values below come from ChEMBL document CHEMBL1128759, “Inhibition of interleukin-1 converting enzyme by N-acyl-aspartyl aryloxymethyl ketones” (Bioorg Med Chem Lett, 1995).

Assay type in all cases: cell-based
For experiment [1], the target named is T1, Caspase-1 (Homo sapiens, UniProt P29466).
T1 sequence (P29466 whole entry): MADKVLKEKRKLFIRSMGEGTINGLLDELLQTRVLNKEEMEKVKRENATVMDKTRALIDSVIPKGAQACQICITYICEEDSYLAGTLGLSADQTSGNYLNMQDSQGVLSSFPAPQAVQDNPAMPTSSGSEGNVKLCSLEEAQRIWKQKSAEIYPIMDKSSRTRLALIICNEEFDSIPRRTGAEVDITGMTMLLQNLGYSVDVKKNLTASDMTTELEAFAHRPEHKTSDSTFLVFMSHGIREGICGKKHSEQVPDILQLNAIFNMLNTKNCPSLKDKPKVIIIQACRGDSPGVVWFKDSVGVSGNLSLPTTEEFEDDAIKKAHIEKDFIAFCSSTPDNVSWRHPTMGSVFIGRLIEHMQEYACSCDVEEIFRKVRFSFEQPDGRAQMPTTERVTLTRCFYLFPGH
Description: Inhibition of IL-1 beta converting enzyme (ICE) in human blood monocytes expressed as Ki.

The target of experiment [2] is T2, Caspase-1 (Homo sapiens) (UniProt P29466).
T2 sequence (whole entry): T1 sequence (P29466 whole entry)
Description: Inhibition of IL-1 beta converting enzyme (ICE) in human blood monocytes expressed as Kon.

Experiment [3] has as its target T2, Caspase-1 (Homo sapiens). Description: Compound was tested for inhibition of IL-1 beta converting enzyme (ICE) in human blood monocytes expressed as Ki.

Some results are limits rather than exact numbers.

For the compound `C=CCOC(=O)N[C@@H](CC(=O)O)C(=O)CCc1cc2ccccc2cc1-c1ncc[nH]1`, the Ki in experiment [1] is > 100 µM.

Consider `C=CCOC(=O)NC(CC(=O)O)C(=O)COc1cc2ccccc2cc1C#N` (centres undefined), for which the k on in experiment [2] was determined as 4500 M⁻¹ s⁻¹.

Regarding `C=CCOC(=O)N[C@@H](CC(=O)O)C(=O)COc1cc2ccccc2cc1-c1ncc[nH]1`, in experiment [2], the k on was determined as 12000 M⁻¹ s⁻¹. For the same compound, in experiment [1], the affinity, expressed as Ki, was 0.09 µM.

Turning to `C=CCOC(=O)NC(CC(=O)O)C(=O)COc1cc2ccccc2cc1C(=O)Nc1ccccc1` (centres undefined), the k on in experiment [2] came to 4100 M⁻¹ s⁻¹.

As for `C=CCOC(=O)NC(CC(=O)O)C(=O)COc1ccc2ccccc2c1C(N)=O` (centres undefined), the Ki in experiment [1] is > 18 µM.

With `C=CCOC(=O)NC(CC(=O)O)C(=O)COc1cc2ccccc2cc1C(N)=O` (centres undefined), in experiment [2], the k on came to 5600 M⁻¹ s⁻¹. Besides, in experiment [1], the affinity, expressed as Ki, was 0.32 µM.

In experiment [1], `C=CCOC(=O)NC(CC(=O)O)C(=O)COc1ccc2ccccc2c1` (centres undefined) came in with a Ki of 4 µM.

In experiment [1], `C=CCOC(=O)NC(CC(=O)O)C(=O)COc1ccccc1C(N)=O` (centres undefined) displayed a Ki of 3.8 µM.

`C=CCOC(=O)NC(CC(=O)O)C(=O)COc1ccccc1` (centres undefined) yielded a Ki in experiment [1] of 2.7 µM.

Turning to `C=CCOC(=O)NC(CC(=O)O)C(=O)COc1cc(-c2ccccc2)ccc1C(N)=O` (centres undefined), the Ki in experiment [1] came out at 2 µM.

Turning to `C=CCOC(=O)NC(CC(=O)O)C(=O)COc1cc2ccccc2cc1C(=O)N(C)C` (centres undefined), the Ki in experiment [1] was > 28 µM.

On to `C=CCOC(=O)NC(CC(=O)O)C(=O)COc1ccc(-c2ccccc2)cc1C(N)=O` (centres undefined), for which, in experiment [3], the k on stood at 3400 M⁻¹ s⁻¹.

For `C=CCOC(=O)NC(CC(=O)O)C(=O)COc1c(C(N)=O)ccc2ccccc12` (centres undefined), in experiment [1], the Ki was > 22 µM.

In experiment [2], `CC(C)[C@H](NC(=O)OCc1ccccc1)C(=O)N[C@@H](C)C(=O)N[C@@H](CC(=O)O)C(=O)COc1cc2ccccc2cc1C(N)=O` registered a k on of 430000 M⁻¹ s⁻¹. In experiment [1], the affinity corresponds to a Ki of 1.7 µM.

Compound `CC(C)[C@H](NC(=O)OCc1ccccc1)C(=O)N[C@@H](C)C(=O)N[C@@H](CC(=O)O)C(=O)COc1ccccc1` displayed a k on in experiment [2] of 1.1 M⁻¹ s⁻¹. In addition, in experiment [1], the Ki amounted to 4.9 µM.
